In patent US20200113913A1, “METHODS FOR HAIR FOLLICLE STEM CELL PROLIFERATION” (Frequency Therapeutics, Inc., priority 2017, published 2020):
Entries after “also recorded” stand apart in the source; their conditions may differ.

What was measured:
GSK3-alpha = GSK3-alpha (Homo sapiens, UniProt P49840); details: cited from earlier work
GSK3-beta = GSK3-beta (Homo sapiens, UniProt P49841); details: cited from earlier work
[1] = tested on: Dermal Papilla (DP) cells; test: Stem Cell Proliferation Assay using dermal papilla; format: cell-based; details: Purmorphamine 1 μM; for Alkaline Phosphatase (Alp) colonies: Example 4, FIG. 4
Experimental: Dermal Papilla (DP) proliferation cell culture assay refers to a cell culture method to quantify the number of Dermal Papilla (DP) spheroids, size of DP spheroids, or number of DP cells in cell culture, which is measured at the end of the assay. DP cells refer to cells that express Alkaline Phosphatase (AP), and/or Versican, and/or Vimentin, and/or Sox2, and/or CD133.
The protocol for the Stem Cell Proliferation Assay using dermal papilla is as follows:
Basal media: DMEM/high-glucose medium and F12, supplemented with N2 1×, B27 1×, Streptomycin sulfate (100 μg/ml), Amphotericin B ([…]), and 1 mM Hepes.
Microdissection is used to remove intact hair follicles from a specimen. Intact follicles are incubated for 40 min at 37° C. in TrypLE™ (Thermo Fisher Scientific) with 1 mg/ml collagenase type 1 (sterilized using 0.2 μm syringe filter). The treated follicles are then triturated >30× using a 200 μl pipette tip. The volume is adjusted up to 1 ml with 1×PBS. The treated follicles are then passed through a 40 μm cell strainer to obtain a single cell suspension.
Twenty μl are applied to a cell counter to determine the number of cells per 1 ml. The remaining cell suspension is spun down at 1,000×g for 5 min at 4° C.
Standard media is prepared supplemented with growth factors (IGF, EGF, and FGF2 at 50 ng/ml). The cells are suspended in standard media with growth factors at 120,000 cells/ml and 250 μl (30,000 cells) are applied to each well of a 24-well plate (Corning Costar, 3534).
Each treatment condition is prepared at 2× concentration, enough for 250 μl/well for a final dilution of 1× in 500 μl. The final DMSO concentration is at about 0.2% for all.
250 μl 2× treatment media is applied to each well to have a final media volume per well of 500 μl. The final treatment concentration per well is 1×. The final cell density is 30,000 cells per well. […]
EVOS® transmitted light images are taken at 0, 5, 7, and 10 days in culture.
Spheroids are collected at 10 days in culture for immunoblotting, qPCR, or flow cytometry. Alternatively, spheroids may be applied to glass bottom dishes coated with poly-1-lysine for alkaline phosphatase (AP) staining, 5-ethynyl-2′-deoxyuridine (EdU) staining, and/or immunofluorescence for DP markers (e.g. Vimentin, Sox2, Versican, CD133) for microscopy.
Alternatively, cells or colonies may be assessed using microscopy to compare DP properties across conditions.

[2] = Example 1, FIG. 1, 8 days in culture, CHIR99021 4 μM, alone or combined
[3] = Example 2, FIG. 2, 10 days in culture, Compound I-7 10 nM, alone or combined
[4] = 10 days in culture, Compound I-7 10 nM, alone or combined
[5] = Example 3, FIG. 3, SAG 3 nM, SAG HCl 500 nM, alone or with Compound I-7 10 nM

Chain of GSK3-alpha (P49840 whole entry, species assumed): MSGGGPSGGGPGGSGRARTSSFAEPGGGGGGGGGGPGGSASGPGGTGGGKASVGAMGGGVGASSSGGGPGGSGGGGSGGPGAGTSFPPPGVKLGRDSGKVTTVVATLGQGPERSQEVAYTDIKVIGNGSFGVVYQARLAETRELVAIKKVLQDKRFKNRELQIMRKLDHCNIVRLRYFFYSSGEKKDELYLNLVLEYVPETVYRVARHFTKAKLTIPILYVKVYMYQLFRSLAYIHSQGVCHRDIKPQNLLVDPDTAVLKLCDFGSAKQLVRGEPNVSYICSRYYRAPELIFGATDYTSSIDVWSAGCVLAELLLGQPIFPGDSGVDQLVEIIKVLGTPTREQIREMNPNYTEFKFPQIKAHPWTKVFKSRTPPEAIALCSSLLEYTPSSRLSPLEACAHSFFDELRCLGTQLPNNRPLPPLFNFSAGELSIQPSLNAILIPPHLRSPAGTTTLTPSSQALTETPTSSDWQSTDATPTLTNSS
Chain of GSK3-beta (P49841 whole entry, species assumed): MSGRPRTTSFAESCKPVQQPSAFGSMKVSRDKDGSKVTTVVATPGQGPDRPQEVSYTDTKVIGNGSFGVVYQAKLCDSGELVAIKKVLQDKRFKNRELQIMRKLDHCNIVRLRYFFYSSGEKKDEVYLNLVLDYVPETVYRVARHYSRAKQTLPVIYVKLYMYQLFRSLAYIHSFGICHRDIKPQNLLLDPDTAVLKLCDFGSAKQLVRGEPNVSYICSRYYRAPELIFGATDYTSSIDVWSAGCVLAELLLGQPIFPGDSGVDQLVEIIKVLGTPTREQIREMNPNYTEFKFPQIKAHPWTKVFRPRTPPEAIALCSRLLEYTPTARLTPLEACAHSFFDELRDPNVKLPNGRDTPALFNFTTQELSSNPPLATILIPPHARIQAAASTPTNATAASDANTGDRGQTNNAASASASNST

## N#Cc1ccc2[nH]c(O)c(-c3ccc(CN4CCOCC4)cn3)c2c1 [AZD1080]
GSK3-alpha
  Potency in nM GSK3-alpha: 6.9 nM

## COc1ccccc1[C@@H]1C2=C(CC(C)(C)CC2=O)Nc2n[nH]c(C(F)(F)F)c21 [BRD1172]
GSK3-alpha
  Potency in nM GSK3-alpha: 3 nM
GSK3-beta
  Potency in nM GSK3-beta: 10 nM

## CC1(C)CC(=O)C2=C(C1)Nc1n[nH]c(C(F)(F)F)c1[C@]2(C)c1ccccc1 [BRD1652]
GSK3-alpha
  Potency in nM GSK3-alpha: 0.4 nM
GSK3-beta
  Potency in nM GSK3-beta: 4 nM

## Cc1c[nH]c(-c2cnc(NCCNc3ccc(C#N)cn3)nc2-c2ccc(Cl)cc2Cl)n1 [CHIR99021]
[1]; [2]
  DP colonies by light microscopy: more abundant colonies than FIG. 1A; also recorded: more abundant colonies than DP cells treated in control conditions

## O=C1NC(=O)C(c2cnc3ccccn23)=C1c1cn2c3c(cc(F)cc13)CN(C(=O)N1CCC(F)(F)CC1)CC2 [Compound I-7, 3-(2-(4,4-difluoropiperidine-1-carbonyl)-9-fluoro-1,2,3,4-tetrahydro-[1,4]diazepino[6,7,1-hi]indol-7-yl)-4-(imidazo[1,2-a]pyridin-3-yl)-1H-pyrrole-2,5-dione]
[1]; [3]
  DP colonies by light microscopy: more abundant colonies than FIG. 2A; also recorded: more abundant colonies than DP cells treated in control conditions
[1]; [4]
  Alkaline Phosphatase (Alp) colonies: small Alp colonies; also recorded: few Alp colonies

## Cc1ccc(C(=O)Nc2c[nH]nc2C(=O)NCCCOC(C)C)cn1 [GSK-3b XXII]
GSK3-alpha
  Potency in nM GSK3-alpha: 2.3 nM

## c1ccc2c(Oc3nc(Nc4ccc(N5CCOCC5)cc4)c4ncn(C5CCCCC5)c4n3)cccc2c1 [Purmorphamine]
[1]; [2]
  DP colonies by light microscopy: slightly larger and more abundant colonies than FIG. 1A; also recorded: slightly larger and more abundant colonies than DP cells treated in control conditions
[1]; [3]
  DP colonies by light microscopy: slightly larger and more abundant colonies than FIG. 2A; also recorded: slightly larger and more abundant colonies than DP cells treated in control conditions
[1]; [5]
  DP colonies by light microscopy: form colonies
[1]; [4]
  Alkaline Phosphatase (Alp) colonies: few Alp colonies

## CNC1CCC(N(Cc2cccc(-c3ccncc3)c2)C(=O)c2sc3ccccc3c2Cl)CC1 (centres unmarked) [SAG]
[1]; [5]
  DP colonies by light microscopy: form colonies
